# From patent US20250064007A1, “Self-Fertilization as Methods for Stabilizing Ploidy after Colchicine Treatment Model” (Rev Genomics, Inc., priority 2023, published 2025)
# Tested on: Cannabis plant
# Test: Leaf ploidy by flow cytometry after colchicine treatment of haploid Cannabis plants
# Assay type: in vivo
# Conditions: for cells counted diploid / cells counted haploid / cells counted tetraploid: mixaploid (n+2n) state
# Text: In some exemplary embodiments, a colchicine concentration (in water) of 0.25% may be used in addition to 0.5%, 1% and 5%. An issue arises with Cannabis in that not all the cells or tissues of a colchicine treated plant will double their ploidy.
# On the multi-cellular level, doubling the ploidy of plants requires colchicine treatment applied to the shoot apical meristem (SAM). The SAM is composed of three distinct cell layers: L1 (outermost layer), L2 (middle layer), and L3 (innermost layer). Within the SAM, stem cell division takes place along the peripheral zone where new leaves emerge (Heidstra, 2014). The L1 gives rise to the epidermis or the protective covering of the leaf and stem, L2 to the sub epidermal photosynthetic mesophyll tissue, and L3 to the vascular tissue including the xylem and phloem. L1 and L2 divide anticlinally or […] to each other and thus remain distinct layers (Meyerowitz, 1997). On occasion, a cell in the SAM can divide periclinally whereby the daughter cell invades and acquires the identity one layer out and brings its ploidy with it. This organizational dynamic creates a stable yet mutable developmental path. In fact, the discovery of the stability of different layers within a meristem was discovered by creating a chimera using colchicine on Datura. The researchers were able to follow the developmental lineage of the differently sized cells due to the different ploidy levels within the SAM (Satina, 1940).
# [1] = cultivar Cryptic Lineage Legacy, FIG. 4C
# [2] = cultivar Herbaceous Sting, FIG. 2C
# [3] = cultivar Operation Green Harvest Haze, FIG. 3C
# [4] = cultivar Standing Liberty, FIG. 1C
structure (smiles),measurement,setting,value
COc1cc2c(c(OC)c1OC)-c1ccc(OC)c(=O)cc1[C@@H](NC(C)=O)CC2 [Colchicine],ploidy doubling of treated haploid plants,colchicine treated haploid Cannabis plants,"very rarely, if ever, achieve a fully diploid state"
same,cells counted diploid,[1],approximately 20.65%
same,cells counted haploid,[1],approximately 17.65%
same,cells counted tetraploid,[1],approximately 2.63%
same,cells counted diploid,[2],approximately 45.82%
same,cells counted haploid,[2],approximately 12.15%
same,cells counted tetraploid,[2],approximately 3.93%
same,cells counted diploid,[3],approximately 22.8%
same,cells counted haploid,[3],approximately 32.4%
same,cells counted tetraploid,[3],approximately 3.1%
same,cells counted diploid,[4],approximately 49%
same,cells counted haploid,[4],approximately 12.48%
same,cells counted tetraploid,[4],approximately 4.39%
